Counter-ions that a name gives are not always drawn. Like-named read-outs stand apart in the source and are kept apart here.

The term IC50 denotes the concentration that gives 50% inhibition. A low value points to greater potency in that assay.

The test system of assay [1] is SKOV-3 cancer cell lines. As to the kind of experiment: Cell viability of SKOV-3 cancer cell lines after treatment with test compound. The assay is classed as cell-based. The protocol: […] Cell viability is evaluated following treatment with a compound as disclosed in Table B. Viability of cancer cells following treatment is indicated according to the following legend:

In assay [2] the test system is OVCAR-4. As to the kind of experiment: Cell viability of OVCAR-4 cells after treatment with test compound. The class given is cell-based.
Where [3] appears, read: Homo sapiens, SK-OV-3, SKOV-3 cancer cells.

Regarding `CN[C@@H](C)C(=O)N[C@H]1CCS[C@H]2CC(C)(C)[C@@H](C(=O)N[C@@H]3CCOc4ccccc43)N2C1=O` [Compound 1, (4S,7S)—N—((R)-chroman-4-yl)-8,8-dimethyl-4-((S)-2-(methylamino)propanamido)-5-oxooctahydropyrrolo[2,1-b][1,3]thiazepine-7-carboxamide hydrochloride], the IC50 fell in the range of 0.001 to 0.01 µM in assay [1] (setting [3]) and 0.01 to 0.1 µM in assay [2] (Homo sapiens).
In the case of `CN[C@@H](C)C(=O)N[C@H]1CCS[C@H]2CC3(CCCC3)[C@@H](C(=O)N[C@@H]3CCOc4ccccc43)N2C1=O` [Compound 5, (4′S,7′S,9a'S)-4′-((S)-2-(chloro(methyl)-15-azaneyl)propanamido)-N-(chroman-4-yl)-5′-oxohexahydro-7′H-spiro[cyclopentane-1,8′-pyrrolo[2,1-b][1,3]thiazepine]-7′-carboxamide], the values for the IC50 in assay [1] (setting [3]) and in assay [2] (Homo sapiens) were 0.001 to 0.01 µM and 0.01 to 0.1 µM, respectively.
Turning to `CN[C@@H](C)C(=O)N[C@H]1CCS[C@H]2CC3(CC=CC3)[C@@H](C(=O)N[C@@H]3CCOc4ccccc43)N2C1=O` [Compound 3, (4′S,7′S,9a'S)-4′-((S)-2-(chloro(methyl)-15-azaneyl)propanamido)-N—((R)-chroman-4-yl)-5′-oxo-2′,3′,4′,5′,9′,9a′-hexahydro-7′H-spiro[cyclopentane-1,8′-pyrrolo[2,1-b][1,3]thiazepin]-3-ene-7′-carboxamide], the figures for the IC50 in assay [1] (setting [3]) and in assay [2] (Homo sapiens) were 0.001 to 0.01 µM and 0.01 to 0.1 µM, respectively.
For `CC[C@H](NC)C(=O)N[C@H]1CCO[C@H]2CC3(CC=CC3)[C@@H](C(=O)N[C@@H]3CCOc4ccccc43)N2C1=O` [Compound 13, (4′S,7′S,9a'S)-4′-((S)-2-(chloro(methyl)-16-azaneyl)butanamido)-N—((S)-chroman-4-yl)-5′-oxo-2′,3′,4′,5′,9′,9a′-hexahydro-7′H-spiro[cyclopentane-1,8′-pyrrolo[2,1-b][1,3]oxazepin]-3-ene-7′-carboxamide], the values for the IC50 in assay [1] (setting [3]) and in assay [2] (Homo sapiens) were 0.001 to 0.01 µM and 0.1 to 1 µM, respectively.
As to `CC[C@H](NC)C(=O)N[C@H]1CCO[C@H]2CC3(CCCC3)[C@@H](C(=O)N[C@@H]3CCOc4ccccc43)N2C1=O` [Compound 10, (4′S,7′S,9a'S)-4′-((S)-2-(chloro(methyl)-16-azaneyl)butanamido)-N-(chroman-4-yl)-5′-oxohexahydro-7′H-spiro[cyclopentane-1,8′-pyrrolo[2,1-b][1,3]oxazepine]-7′-carboxamide], the IC50 in assay [1] (setting [3]) lay within 0.001 to 0.01 µM; in assay [2] (Homo sapiens), 0.1 to 1 µM.
Consider `CN[C@@H](C)C(=O)N[C@H]1CCO[C@H]2CC3(CC=CC3)[C@@H](C(=O)N[C@H]3CCOc4ccccc43)N2C1=O` [Compound 12, (4′S,7′S,9a'S)-4′-((S)-2-(chloro(methyl)-15-azaneyl)propanamido)-N—((S)-chroman-4-yl)-5′-oxo-2′,3′,4′,5′,9′,9a′-hexahydro-7′H-spiro[cyclopentane-1,8′-pyrrolo[2,1-b][1,3]oxazepin]-3-ene-7′-carboxamide], for which the IC50 is 0.1 to 1 µM in assay [1] (SKOV-3 cancer cells) and more than 1 µM in assay [2].
On to `CC[C@H](NC)C(=O)N[C@H]1CCSC2CC(C)(C)[C@@H](C(=O)N[C@@H]3CCOc4ccccc43)N2C1=O` (stereo partly drawn) [Compound 8, (4S,7S)—N—((R)-chroman-4-yl)-8,8-dimethyl-4-((S)-2-(methylamino)butanamido)-5-oxooctahydropyrrolo[2,1-b][1,3]thiazepine-7-carboxamide hydrochloride], for which the values for the IC50 in assay [1] (setting [3]) and in assay [2] (Homo sapiens) were 0.001 to 0.01 µM and 0.01 to 0.1 µM, respectively.
Turning to `CN[C@@H](C)C(=O)N[C@H]1CCS[C@H]2CC3(CC=CC3)[C@@H](C(=O)N[C@@H]3CCSc4ccccc43)N2C1=O` [Compound 4, (4′S,7′S,9a'S)-4′-((S)-2-(chloro(methyl)-15-azaneyl)propanamido)-5′-oxo-N—((R)-thiochroman-4-yl)-2′,3′,4′,5′,9′,9a′-hexahydro-7′H-spiro[cyclopentane-1,8′-pyrrolo[2,1-b][1,3]thiazepin]-3-ene-7′-carboxamide], the IC50 fell in the range of 0.001 to 0.01 µM in assay [1] (setting [3]) and 0.1 to 1 µM in assay [2] (Homo sapiens).
Consider `CN[C@@H](C)C(=O)N[C@H]1CCS[C@H]2CC(C)(C)[C@@H](C(=O)N[C@@H]3CCSc4ccccc43)N2C1=O` [Compound 2, (4S,7S)-8,8-dimethyl-4-((S)-2-(methylamino)propanamido)-5-oxo-N—((R)-thiochroman-4-yl)octahydropyrrolo[2,1-b][1,3]thiazepine-7-carboxamide hydrochloride], for which the IC50 was 0.001 to 0.01 µM in assay [1] (setting [3]) and 0.1 to 1 µM in assay [2] (Homo sapiens).
As to `CN[C@@H](C)C(=O)N[C@H]1CCS[C@H]2CC3(CC=CC3)[C@@H](C(=O)N[C@@H]3CCCc4ccccc43)N2C1=O` [Compound 11, (4′S,7′S,9a'S)-4′-((S)-2-(chloro(methyl)-15-azaneyl)propanamido)-5′-oxo-N-(1,2,3,4-tetrahydronaphthalen-1-yl)-2′,3′,4′,5′,9′,9a′-hexahydro-7′H-spiro[cyclopentane-1,8′-pyrrolo[2,1-b][1,3]thiazepin]-3-ene-7′-carboxamide], the values for the IC50 in assay [1] (setting [3]) and in assay [2] (Homo sapiens) were 0.001 to 0.01 µM and 0.01 to 0.1 µM, respectively.
In the case of `CN[C@@H](C)C(=O)N[C@H]1CCO[C@H]2CC3(CCCC3)[C@@H](C(=O)N[C@@H]3CCOc4ccccc43)N2C1=O` [Compound 9, (4′S,7′S,9a'S)-4′-((S)-2-(chloro(methyl)-16-azaneyl)propanamido)-N-(chroman-4-yl)-5′-oxohexahydro-7′H-spiro[cyclopentane-1,8′-pyrrolo[2,1-b][1,3]oxazepine]-7′-carboxamide], the IC50 in assay [1] (setting [3]) was in the range of 0.001 to 0.01 µM; in assay [2] (Homo sapiens), 0.1 to 1 µM.
`CN[C@@H](C)C(=O)N[C@H]1CCS[C@H]2CC3(CCCC3)[C@@H](C(=O)N[C@@H]3CCSc4ccccc43)N2C1=O` [Compound 6, (4′S,7′S,9a'S)-4′-((S)-2-(chloro(methyl)-15-azaneyl)propanamido)-5′-oxo-N—((R)-thiochroman-4-yl)hexahydro-7′H-spiro[cyclopentane-1,8′-pyrrolo[2,1-b][1,3]thiazepine]-7′-carboxamide]: the IC50 lay within 0.001 to 0.01 µM in assay [1] (setting [3]) and 0.1 to 1 µM in assay [2] (Homo sapiens).
Turning to `CN[C@@H](C)NC(=O)N[C@H]1CCSC2CC(C)(C)[C@@H](C(=O)N[C@@H]3CCOc4ccccc43)N2C1=O` (stereo partly drawn) [Compound 7, (4S,7S)—N—((R)-chroman-4-yl)-8,8-dimethyl-4-(3-((R)-1-(methylamino)ethyl)ureido)-5-oxooctahydropyrrolo[2,1-b][1,3]thiazepine-7-carboxamide hydrochloride], the IC50 in assay [1] (setting [3]) and in assay [2] (Homo sapiens) was more than 1 µM each time.

The record behind these values is patent US20250129099A1, “INHIBITOR OF APOPTOSIS (IAP) PROTEIN ANTAGONISTS” (Sanford Burnham Prebys Medical Discovery Institute, priority 2021, published 2025).
